For series [1], the system named is platelet aggregation induced by ADP. As to the kind of experiment: Platelet aggregation induced by ADP in patients after drug administration. The class given is in vivo, human. Conditions: for platelet aggregation rate: patients, x ± s. The text has this: • a. The patients with chronic cardiovascular and cerebrovascular diseases, and the course of disease >1 month; • b.
• a. The patients attacked by acute myocardial infarction or stroke in one month; • b. […] The patients with medical history of serious liver, kidney disease, or digestive tract or other organ bleeding; • d. The persons with reduced granulocytes or platelets.
(§1) The course for both experimental group and control group are four weeks.
(§2) The basic drugs taken by the patients for treating their cardiovascular and cerebrovascular diseases were maintained the same in terms of dosage and usage during the period for observation, but they are forbidden to take anticoagulant drug, such as aspirin, dipyridamole or Phenylbutazone. The administration was stopped at the end of 4th week and re-examination was performed to observe the change of indexes.
Induction experiment of two different concentrations of ADP (0.5 μmol/L and 1.0 μmol/L) was performed and re-examination was conducted on the 2nd and 4th weekends.
In Table 1, 0.5 and 1.0 represent the induction rate of 0.5 μmol/L of ADP and 1.0 μmol/L of ADP respectively.

A short description of series [2]: Laboratory examination: liver function, blood and urine routine. The class given is in vivo, human.
The test system of series [3] is bleeding time. The series is described as follows: Bleeding time (Duke Method) in patients. The class given is in vivo, human. As for the experimental part: as §2
(§3) Duke Method and Test Tube Method were used for determination respectively. The same method was used for the same case. The values are compared before and after the determination, and the changing values are calculated.

Series [4] can be described thus: Adverse reactions in patients.
From the text: as §1

Series [5] concerns clotting time. The series is described as follows: Clotting time (Test Tube Method) in patients. The class given is in vivo, human. As for the experimental part:
as §2, §3

The mark [6] stands for this setting: four weeks of one tablet per day oral, induction with 0.5 μmol/L ADP.
[7] abbreviates: four weeks of one tablet per day oral, induction with 1.0 μmol/L ADP.
The mark [8] stands for this setting: two weeks of one tablet per day oral, induction with 0.5 μmol/L ADP.
Setting [9] is: two weeks of one tablet per day oral, induction with 1.0 μmol/L ADP.
The mark [10] stands for this setting: after taking drug (four-week course).
Setting [11] is: before taking drug (baseline of the group).

Structures can show the parent of a compound that is named as a salt.

As to `Clc1ccccc1CN1CCc2sccc2C1` [TCP, ticlopidine hydrochloride, reference compound], the platelet aggregation rate came to 32.8 ± 23.1% in series [1] (setting [6]), 37.2 ± 25.4% in series [1] (setting [7]), 28.3 ± 23.8% in series [1] (setting [8]) and 35.3 ± 20.8% in series [1] (setting [9]). Besides, the “liver function, blood and urine routine” value in series [2] (in vivo) is reported as “do not change significantly”. Moreover, the values for the bleeding time in series [3] (setting [10]) and in series [3] (setting [11]) were 2.29 ± 1.40 min and 1.73 ± 1.35 min, respectively. For the same compound, the “cases with skin rash, hoarseness and mild dysphagia” value in series [4] (human, in vivo, 2 weeks) amounted to 2 cases. In series [4] (human, in vivo, 4 weeks), this compound showed an adverse reactions incidence of 11.87%. Also, the “incidence of conjunctiva bleeding, purpura and bleeding spot on skin” value in series [4] (human, in vivo, 4 weeks) is recorded as 3.45%.
As to `CC(C)=CCC[C@](C)(O)[C@H]1CC[C@]2(C)[C@@H]1[C@H](O)C[C@@H]1[C@@]3(C)CC[C@H](O)C(C)(C)[C@@H]3[C@@H](O[C@@H]3O[C@H](CO)[C@@H](O)[C@H](O)[C@H]3O)C[C@]12C` [ginsenoside Rh1], in series [1] (after taking drugs for 4 weeks), the “platelet aggregation rate compared with the control group (TCP)” value was “smaller than that of the control group obviously”. The platelet aggregation rate was 28.8 ± 23.4% in series [1] (setting [6]), 34.3 ± 25.6% in series [1] (setting [7]), 28.7 ± 22.5% in series [1] (setting [8]) and 35.4 ± 23.4% in series [1] (setting [9]). In addition, the clotting time in series [5] (setting [10]) came to 7.83 ± 2.55 min; in series [5] (setting [11]), 7.17 ± 2.59 min. The “liver function, blood and urine routine” value in series [2] (before taking drugs vs after taking drugs for 4 weeks, all within normal limits) is reported as “do not change significantly”. The bleeding time was determined as 1.89 ± 1.11 min in series [3] (setting [10]) and 1.72 ± 1.20 min in series [3] (setting [11]). In series [4] (four-week course, mainly dizziness, nausea, conjunctiva bleeding and bleeding spot on skin), the adverse reactions incidence was 6.86%.

Source of the values: patent US20100286074A1, “PHARMACEUTICAL USE OF G[…] MIXTURE THEREOF AND PHARMACEUTICAL COMPOSITION OF G[…] USE THEREOF” (LIMIN PHARMACEUTICAL FACTORY, LIVZON GROUP, priority 2007, published 2010).
